The source of these data is US8324273B2 (XenoPort, Inc., priority 2006, dated 2012).

The conditions of series [1]: following oral administration of NB-355; cited from earlier work.
The nature of series [2]: Hygroscopicity of crystalline hydrogen fumarate (21) crystallized from various solvents. In kind it is physicochemical. On the procedure:
(1R)-2-Acetyloxy-1-methylethyl (2S)-2-amino-3-[3,4-bis(ethoxycarbonyloxy)phenyl]propanoate hydrogen fumarate (21) was crystallized using the solvents listed in Table 1 on a 100 mg scale.

Series [3] is described as follows: Intracolonic bioavailability of levodopa prodrugs in monkeys. The class given is in vivo, male Cynomologous monkeys. The note with it: male, monkey, whole blood, intravenous, 10 mg; read-out: mean AUCinf. As for the experimental part: Male Cynomologous monkeys weighing about 3.0 kg were used in the studies. Monkeys are fasted overnight prior to the study until 4 hours after dosing. Water was provided ad libitum.
Carbidopa was prepared as a solution (0.72 mg/mL) in sodium acetate buffer pH 5.16.
Blood samples were collected at pre-dose and at 0.17, 0.25, 0.5, 0.75, 1, 2, 4, 6, 8, 12, and 24 hours post-dose. About 0.3 mL of blood was collected in pre-chilled K2EDTA tubes containing 100 μL of 10% sodium metabisulfite. The contents were gently vortexed at low speed to ensure that the sampled blood came into contact with sodium metabisulfite while maintaining ice on the samples at all times. About 0.1 mL of the anticoagulated blood was added to each of 2 pre-chilled cryovials that each contained about 0.3 mL of quenching media (89.3% v/v methanol and 10.7% v/v 4N perchloric acid) within 5 minutes of bleed. Within 30 minutes of blood collection, the samples were centrifuged at about 3,000 rpm, 4° C., for 10 min. The samples were then stored at −70° C.
Blood samples were analyzed as described in Example 30.

In the case of `CC(C)(C)C(=O)Oc1ccc(C[C@H](N)C(=O)O)cc1O` [NB-355], in series [1], the “duration of circulating levodopa” value is reported as “prolonged” and the “plasma concentrations of levodopa” value is given as “low”.

Broadly, the melting point is the temperature of the solid-liquid transition. `CCOC(=O)Oc1ccc(C[C@H](N)C(=O)O[C@H](C)COC(C)=O)cc1OC(=O)OCC.O=C(O)/C=C/C(=O)O` [Compound 21, (1R)-2-Acetyloxy-1-methylethyl (2S)-2-Amino-3-[3,4-bis(ethoxycarbonyloxy)phenyl]propanoate Hydrogen Fumarate] had a melting point of 78.1 to 80.7 °C. For the same compound, the Hygroscopicity entry in series [2] (crystallized from acetonitrile-methyl tert-butyl ether) was “None”. For the same compound, the Hygroscopicity entry in series [2] (crystallized from ethyl acetate) is given as “None”. In addition, the Hygroscopicity entry in series [2] (crystallized from ethyl acetate-diisopropyl ether) was “None”. The Hygroscopicity result in series [2] (crystallized from ethyl acetate-methyl tert-butyl ether) is reported as “None”.

In the case of `N[C@@H](Cc1ccc(O)c(O)c1)C(=O)O` [levodopa, L-3,4-dihydroxyphenylalanine], the AUC(0-inf) in series [3] turned out to be 3690 ng·h/mL.
